In ChEMBL document CHEMBL1201862, “PubChem BioAssay data set” (2004):
Active and inactive are the calls of the source.

How the values were obtained:
[1] = target: Peroxisome proliferator-activated receptor gamma/Nuclear receptor coactivator 1 (Homo sapiens, UniProt P37231); assay: TR-FRET dose response biochemical High Throughput Screening assay for agonists of the steroid receptor coactivator 1 (SRC-1) recruitment by the peroxisome proliferator-activated receptor gamma (PPAR gamma): non-selective agonists. [Related pubchem assays (depositor defined):AID1300, AID1808, AID504735, AID631]; assay type: protein assay
[2] = target: Peroxisome proliferator-activated receptor gamma/Nuclear receptor coactivator 2 (Homo sapiens, UniProt P37231); assay: (§1) TR-FRET dose response biochemical High Throughput Screening assay for agonists of the steroid receptor coactivator 2 (SRC-2) recruitment by the peroxisome proliferator-activated receptor gamma (PPAR gamma): non-selective agonists. [Related pubchem assays: 1297, 1032 ]; assay type: functional
Peroxisome proliferator-activated receptor gamma/Nuclear receptor coactivator 2, sequence (P37231 whole entry): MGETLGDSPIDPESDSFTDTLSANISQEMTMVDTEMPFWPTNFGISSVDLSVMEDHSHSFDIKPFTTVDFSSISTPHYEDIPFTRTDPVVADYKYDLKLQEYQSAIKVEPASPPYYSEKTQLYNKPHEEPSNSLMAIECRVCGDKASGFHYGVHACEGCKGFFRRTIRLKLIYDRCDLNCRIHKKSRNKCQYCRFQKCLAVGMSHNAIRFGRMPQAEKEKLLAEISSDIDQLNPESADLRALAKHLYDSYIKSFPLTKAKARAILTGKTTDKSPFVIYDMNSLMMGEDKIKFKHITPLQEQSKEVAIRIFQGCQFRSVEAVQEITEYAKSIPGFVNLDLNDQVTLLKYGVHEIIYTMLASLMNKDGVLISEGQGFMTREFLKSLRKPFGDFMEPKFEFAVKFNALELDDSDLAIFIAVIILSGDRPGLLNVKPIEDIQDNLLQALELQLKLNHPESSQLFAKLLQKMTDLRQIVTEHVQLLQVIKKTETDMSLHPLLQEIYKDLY
Peroxisome proliferator-activated receptor gamma/Nuclear receptor coactivator 2, sequence (Q15596 whole entry, further chain): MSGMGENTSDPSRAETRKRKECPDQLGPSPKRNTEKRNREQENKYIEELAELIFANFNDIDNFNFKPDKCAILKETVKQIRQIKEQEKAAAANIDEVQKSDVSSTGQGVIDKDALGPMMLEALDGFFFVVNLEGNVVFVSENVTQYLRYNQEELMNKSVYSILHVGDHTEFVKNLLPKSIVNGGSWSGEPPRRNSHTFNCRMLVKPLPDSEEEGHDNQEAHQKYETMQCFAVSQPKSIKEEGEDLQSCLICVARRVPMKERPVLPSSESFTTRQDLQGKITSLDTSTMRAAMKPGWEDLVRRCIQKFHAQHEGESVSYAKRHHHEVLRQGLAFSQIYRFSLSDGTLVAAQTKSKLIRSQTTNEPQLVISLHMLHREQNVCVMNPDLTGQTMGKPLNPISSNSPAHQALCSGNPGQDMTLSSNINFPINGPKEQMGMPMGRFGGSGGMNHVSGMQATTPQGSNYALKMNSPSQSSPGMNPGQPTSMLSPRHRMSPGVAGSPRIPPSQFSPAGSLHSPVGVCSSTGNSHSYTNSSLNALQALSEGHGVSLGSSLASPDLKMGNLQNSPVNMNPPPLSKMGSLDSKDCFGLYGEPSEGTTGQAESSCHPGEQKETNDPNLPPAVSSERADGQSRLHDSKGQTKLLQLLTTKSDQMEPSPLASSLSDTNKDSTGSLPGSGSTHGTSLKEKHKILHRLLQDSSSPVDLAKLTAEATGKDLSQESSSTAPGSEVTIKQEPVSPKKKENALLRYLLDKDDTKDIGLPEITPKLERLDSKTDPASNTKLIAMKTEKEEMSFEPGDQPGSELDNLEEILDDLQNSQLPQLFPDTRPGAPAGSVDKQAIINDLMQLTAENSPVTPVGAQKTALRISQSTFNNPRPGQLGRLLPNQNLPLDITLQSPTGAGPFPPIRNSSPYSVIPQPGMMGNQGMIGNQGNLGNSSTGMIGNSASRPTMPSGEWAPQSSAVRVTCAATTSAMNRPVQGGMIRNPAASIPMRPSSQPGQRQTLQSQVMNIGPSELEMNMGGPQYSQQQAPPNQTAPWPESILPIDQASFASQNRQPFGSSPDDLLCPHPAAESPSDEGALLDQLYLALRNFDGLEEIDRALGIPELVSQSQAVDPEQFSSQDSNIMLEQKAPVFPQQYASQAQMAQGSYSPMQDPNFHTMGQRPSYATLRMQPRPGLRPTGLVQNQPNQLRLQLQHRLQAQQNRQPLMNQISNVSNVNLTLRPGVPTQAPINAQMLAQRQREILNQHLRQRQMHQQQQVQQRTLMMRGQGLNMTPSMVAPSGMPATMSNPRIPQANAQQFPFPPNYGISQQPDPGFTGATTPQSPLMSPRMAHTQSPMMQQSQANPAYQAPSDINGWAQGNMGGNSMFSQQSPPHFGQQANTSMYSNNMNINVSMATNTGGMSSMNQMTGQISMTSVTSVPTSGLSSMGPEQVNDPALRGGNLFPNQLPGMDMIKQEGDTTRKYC

[3] = target: Peroxisome proliferator-activated receptor gamma/Nuclear receptor coactivator 3 (Homo sapiens, UniProt P37231); assay: as §1, with “3 (SRC-3)” for “2 (SRC-2)”, “1301 (Confirmation screen.), 1048 (Primary screen.)]” for “1297, 1032 ]”; assay type: functional
Peroxisome proliferator-activated receptor gamma/Nuclear receptor coactivator 3, sequence (P37231 whole entry): as the sequence (P37231 whole entry) above
Peroxisome proliferator-activated receptor gamma/Nuclear receptor coactivator 3, sequence (Q9Y6Q9 whole entry, further chain): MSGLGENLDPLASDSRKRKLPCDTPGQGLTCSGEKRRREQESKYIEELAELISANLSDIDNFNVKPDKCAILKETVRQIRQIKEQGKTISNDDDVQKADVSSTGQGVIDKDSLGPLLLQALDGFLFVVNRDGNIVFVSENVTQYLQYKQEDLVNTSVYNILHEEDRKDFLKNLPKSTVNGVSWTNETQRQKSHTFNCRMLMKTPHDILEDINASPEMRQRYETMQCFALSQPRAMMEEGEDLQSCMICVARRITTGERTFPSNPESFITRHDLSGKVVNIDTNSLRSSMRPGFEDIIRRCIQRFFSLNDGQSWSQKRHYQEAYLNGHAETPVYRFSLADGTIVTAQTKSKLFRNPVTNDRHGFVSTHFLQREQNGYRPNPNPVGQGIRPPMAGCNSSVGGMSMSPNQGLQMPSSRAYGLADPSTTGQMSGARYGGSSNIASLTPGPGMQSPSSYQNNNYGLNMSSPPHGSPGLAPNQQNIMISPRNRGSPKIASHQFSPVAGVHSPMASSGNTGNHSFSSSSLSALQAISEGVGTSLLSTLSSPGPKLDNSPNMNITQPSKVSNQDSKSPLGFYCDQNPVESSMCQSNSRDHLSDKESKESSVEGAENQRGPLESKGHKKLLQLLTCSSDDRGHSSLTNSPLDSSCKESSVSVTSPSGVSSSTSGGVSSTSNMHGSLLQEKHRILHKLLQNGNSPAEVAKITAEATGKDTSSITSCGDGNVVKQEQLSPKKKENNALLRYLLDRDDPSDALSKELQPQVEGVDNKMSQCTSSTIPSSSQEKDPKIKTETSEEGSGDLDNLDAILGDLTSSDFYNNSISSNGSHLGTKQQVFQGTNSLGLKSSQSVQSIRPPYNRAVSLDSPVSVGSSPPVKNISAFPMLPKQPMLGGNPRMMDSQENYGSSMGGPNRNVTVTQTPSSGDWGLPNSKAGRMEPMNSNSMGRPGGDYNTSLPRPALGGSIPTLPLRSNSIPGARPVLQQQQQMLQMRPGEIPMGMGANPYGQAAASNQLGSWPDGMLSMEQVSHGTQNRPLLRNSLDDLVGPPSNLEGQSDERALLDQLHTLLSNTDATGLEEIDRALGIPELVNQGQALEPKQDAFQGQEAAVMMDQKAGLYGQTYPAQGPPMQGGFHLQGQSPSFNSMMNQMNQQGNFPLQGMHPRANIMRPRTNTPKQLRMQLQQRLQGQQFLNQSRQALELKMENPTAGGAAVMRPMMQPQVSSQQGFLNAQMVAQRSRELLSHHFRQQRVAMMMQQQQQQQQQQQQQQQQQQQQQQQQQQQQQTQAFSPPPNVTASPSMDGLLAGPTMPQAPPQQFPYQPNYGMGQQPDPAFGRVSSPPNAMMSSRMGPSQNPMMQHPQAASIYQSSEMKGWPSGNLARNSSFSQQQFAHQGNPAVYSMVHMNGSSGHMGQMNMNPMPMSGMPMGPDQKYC

[4] = target: Voltage-gated inwardly rectifying potassium channel KCNH2 (Homo sapiens, UniProt Q12809); assay: concentration-dependent hERG rescue from blockers – cell-based, thallium flux, dose response (AID 2121); assay type: ADME
[5] = target: T1, Cannabinoid receptor 2 (Homo sapiens, UniProt P34972); assay: SAR analysis of agonists of the Cannabinoid Receptor 2 using an Image-Based Assay - Set 3. [Related pubchem assays (depositor defined):AID2013, AID2026]; assay type: functional
T1 sequence (P34972 whole entry): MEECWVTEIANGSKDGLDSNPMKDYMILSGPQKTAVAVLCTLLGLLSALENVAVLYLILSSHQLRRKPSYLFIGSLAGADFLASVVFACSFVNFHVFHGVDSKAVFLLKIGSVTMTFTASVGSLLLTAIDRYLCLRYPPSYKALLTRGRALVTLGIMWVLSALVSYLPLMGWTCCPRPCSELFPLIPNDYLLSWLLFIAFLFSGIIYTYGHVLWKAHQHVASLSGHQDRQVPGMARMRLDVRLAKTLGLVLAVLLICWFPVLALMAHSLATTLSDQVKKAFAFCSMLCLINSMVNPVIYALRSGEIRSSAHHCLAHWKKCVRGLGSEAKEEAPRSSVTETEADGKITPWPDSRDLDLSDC

[6] = target: T2, G-protein coupled receptor 35 (Homo sapiens, UniProt Q9HC97); assay: SAR analysis of Agonists of the GPR35 Receptor using an Image-Based Assay - Set 4. [Related pubchem assays (depositor defined):AID2013, AID2026]; assay type: functional
T2 sequence (Q9HC97 whole entry): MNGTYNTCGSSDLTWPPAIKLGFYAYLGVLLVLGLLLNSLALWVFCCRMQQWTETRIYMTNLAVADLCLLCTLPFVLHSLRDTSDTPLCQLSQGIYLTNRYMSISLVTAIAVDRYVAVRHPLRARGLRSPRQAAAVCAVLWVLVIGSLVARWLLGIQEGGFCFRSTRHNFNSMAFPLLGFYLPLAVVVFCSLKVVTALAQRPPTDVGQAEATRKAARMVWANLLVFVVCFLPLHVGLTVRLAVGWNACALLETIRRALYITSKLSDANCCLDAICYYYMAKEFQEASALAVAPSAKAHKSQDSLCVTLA

[7] = target: T2, G-protein coupled receptor 35; assay: SAR analysis of Antagonists of the GPR35 Receptor using an Image-Based Assay - Set 6. [Related pubchem assays (depositor defined):AID2013, AID2026]; assay type: functional
[8] = target: T3, Cannabinoid receptor 1 (Homo sapiens, UniProt P21554); assay: SAR analysis of antagonists of the Cannabinoid Receptor 1 using an Image-Based Assay - Set 4. [Related pubchem assays (depositor defined):AID2013, AID2026]; assay type: functional
T3 sequence (P21554 whole entry): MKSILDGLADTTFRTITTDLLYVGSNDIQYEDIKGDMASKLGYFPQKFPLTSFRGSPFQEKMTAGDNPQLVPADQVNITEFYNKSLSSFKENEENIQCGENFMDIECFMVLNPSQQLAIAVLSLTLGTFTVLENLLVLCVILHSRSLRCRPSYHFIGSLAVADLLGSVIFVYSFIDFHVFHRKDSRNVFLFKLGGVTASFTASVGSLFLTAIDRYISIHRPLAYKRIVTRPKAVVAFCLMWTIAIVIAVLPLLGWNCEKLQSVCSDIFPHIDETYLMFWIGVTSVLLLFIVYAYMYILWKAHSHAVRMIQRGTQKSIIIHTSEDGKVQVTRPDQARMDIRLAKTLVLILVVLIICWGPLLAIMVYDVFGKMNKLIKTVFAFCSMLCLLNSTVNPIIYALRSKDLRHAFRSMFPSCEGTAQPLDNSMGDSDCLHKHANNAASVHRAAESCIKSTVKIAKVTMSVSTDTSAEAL

[9] = target: T3, Cannabinoid receptor 1; assay: SAR analysis of agonists of the Cannabinoid Receptor 1 using an Image-Based Assay - Set 4. [Related pubchem assays (depositor defined):AID2013, AID2026]; assay type: functional
[10] = target: T1, Cannabinoid receptor 2; assay: SAR analysis of antagonists of the Cannabinoid Receptor 2 using an Image-Based Assay - Set 3. [Related pubchem assays (depositor defined):AID2013, AID2026]; assay type: functional
[11] = target: G-protein coupled receptor 55 (Homo sapiens, UniProt Q9Y2T6); assay: SAR Analysis of Selective Antagonists of GPR55 using an Image-Based Assay - Set 4. [Related pubchem assays (depositor defined):AID2013, AID2026]; assay type: functional;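 note: antagonism of response to 5 µM lysophosphatidylinositol agonist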

EC50 [1] | EC50 [2] | EC50 [3] | EC50 [5] | EC50 [6] | IC50 [7] | IC50 [8] | EC50 [9] | IC50 [10] | IC50 [11] | Compound | EC50 [4]
> 79.4 µM (inactive) | > 79.4 µM (not active) | > 79.4 µM (not active) | – | – | – | – | – | – | – | CCCC(=O)Nc1c2c(nc3ccccc13)N(c1ccccc1)CC2 | –
> 79.4 µM (inactive) | > 79.4 µM (not active) | > 79.4 µM (not active) | – | – | – | – | – | – | – | O=C(NN1C(=O)/C(=C/c2nc3ccccc3[nH]2)SC1=S)c1cccc(Cl)c1 | 7.01 µM (active)
– | – | – | > 32 µM (inactive) | > 32 µM (inactive) | > 32 µM (inactive) | 0.474 µM (active) | > 32 µM (inactive) | 13.9 µM (inactive) | 11.7 µM (inactive) | CC(C)(C)c1ccc(-c2c(-c3nc4ccccc4[nH]3)n[nH]c2-c2ccccc2)cc1 | –
